Test results: patent publication US9624249B2, “Nucleoside kinase bypass compositions and methods” (Merck Sharp & Dohme Corp., priority 2013, dated 2017)
Where two headings read alike, the source gives them in different places.

Legend:
Type in all cases: cell-based
[1] = system: hepatitis virus C (HCV) genotype 1a; assay: HCV subgenomic replicon assay (RHEPTAQ), genotype 1a; details: Hepatitis C virus, Table 4, genotype 1a; read-out: Replicon: EC50 (1a)
From the text: (§1) Table 3 and Table 4 summarize the measured activities of these prodrugs as assessed in a subgenomic replicon assay (RHEPTAQ), against genotypes 1a, 1b and 2a.

[2] = system: hepatitis virus C (HCV) genotype 1b; assay: HCV subgenomic replicon assay (RHEPTAQ), genotype 1b; details: Hepatitis C virus, Table 4, genotype 1b; read-out: Replicon: EC50 (1b)
From the text: as §1

[3] = system: hepatitis virus C (HCV) genotype 1c; assay: HCV replicon, genotype printed as 1c; details: read-out: Replicon: EC50 (1c)
Tox: EdU/CellCount CC50 = assay: Tox: EdU/CellCount CC50

`C[C@@]1(F)[C@@H]2OP(=O)(OC3CSSC[C@@H]3OCc3ccccc3)OCC2O[C@H]1n1ccc(=O)[nH]c1=O` (some centres unmarked) showed an EC50 [1] of 92 nM, an EC50 [2] of 107 nM and an EC50 [3] of 101 nM. For the same compound, the CC50 (Tox: EdU/CellCount CC50; CellCount readout, read-out: Tox: CellCount CC50) was 85000 nM and the CC50 (Tox: EdU/CellCount CC50; EdU readout, read-out: Tox: EdU CC50) was 30000 nM.
